# From publication PMC9259847, “Baicalin Induces a Potent Innate Immune Response to Inhibit Respiratory Syncytial Virus Replication via Regulating Viral Non-Structural 1 and Matrix RNA” (Frontiers in Immunology, 2022)
# Target: T1, NS1 protein (RSV non-structural protein NS1) (Human respiratory syncytial virus A2, UniProt P0DOE9)
# T1 construct: gene 1C; NS1 coupled to CM5 chip
# Assay: SPR (Biacore T200, NS1 coupled to CM5 chip)
# Assay type: binding
# T1 sequence (P0DOE9 whole entry): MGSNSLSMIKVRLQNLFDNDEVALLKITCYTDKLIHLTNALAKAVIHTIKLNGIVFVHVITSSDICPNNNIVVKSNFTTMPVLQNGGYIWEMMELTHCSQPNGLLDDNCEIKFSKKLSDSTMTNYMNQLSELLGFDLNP
compound,measurement,value
O=C(O)[C@H]1O[C@@H](Oc2cc3oc(-c4ccccc4)cc(=O)c3c(O)c2O)[C@H](O)[C@@H](O)[C@@H]1O [baicalin],Kd,11.2 µM
